Molecules are shown by their SMILES.

These results are taken from patent publication US20190365927A1, “COMPOSITION FOR PHOTODYNAMIC THERAPY USING GENE EXPRESSING FLUORESCENT PROTEIN AND PHOTOSENSITIZER, AND PHOTODYNAMIC THERAPY METHOD USING SAME” (priority 2017, published 2019).

For series [1], the system named is GFP cells and non-GFP cells. Kind of series: Peristaltic pump experiment, Hoechst 33342 and PI double staining. Format: cell-based. To be noted: 100 μM RB, 4 hours, flow 1 ml/min, 473 nm at 80 mW, repeated passes. The method, then:
(1) Non-GFP and GFP cells were seeded in a 100 mm dish at a density of 1×10^7 cells. The next day, 100 μM of rose bengal (RB, santacruz, sc-203757) was applied thereto (in the subsequent procedure, light exposure was avoided as much as possible). A 4 mm ID×6 mm OD×1 mm wall sized transparent tube (Tygon, E-3603) was connected to an EP-1 Econo Pump (Bio-rad, 731-9001) in the dark room. A laser device was prepared.
In four hours after the RB treatment, cells were harvested using trypsin, suspended in 20 ml of the culture medium, and placed in a 50 ml tube. Using a pump, the cell solution passed through the tubing at a flow rate of 1 ml/min and was irradiated with light of 473 nm at an intensity of 80 mW. This process was repeated 2, 4, 8, and 10 times. The resulting cells were seeded in a 1-ml 12-well plate. The next day, double staining was performed to compare the death amounts of non-GFP and GFP cells with each other.
0.5×10^7 of non-GFP cells and 0.5×10^7 of GFP cells were mixed with each other (total 1×10^7). […]
PDT-treated cells were seeded onto a 12-well plate (1 mL per well) while controlling the PDT-treated cells to have a confluence of 50% or larger. […] The number of dead cells (PI-stained cells)/total number of cells*100 per cell image was calculated. Then, the cell death percentage was measured by calculating the average value between the calculated values of three cell images.

Series [2] deals with GFP+ and GFP− NCI-H460 cells. The experiment in a line: In vitro fluorescence intensity measurement after blue light irradiation (FRET). In kind it is cell-based, human. To be noted: RB 0, 5, 10, 50 uM, blue laser light 473 nm, FIG. 15. The method, then:
Fluorescent intensities of GFP− and GFP+ cells after blue light irradiation were measured in the presence or absence of RB. The specific experimental procedure is as follows.
1×10^6 cells of GFP− and GFP+ NCI-H460 cell lines as produced by the method described in the 1-1 were cultured in a 75 cm^2 cell culture dish containing RPMI-1640 medium supplemented with 10% FBS. After 12 hours, the culture medium of the cell line was replaced with RPMI-1640 medium without FBS. Then, RBs of various concentrations (0 uM, 5 uM, 10 uM, 50 uM) were added thereto. The culturing was done for 4 hours to accumulate RB in the cells. Then, the cells were obtained by centrifugation. Pellets of each cell group were suspended in 1 ml PBS. Then, the cell was irradiated with blue laser light (473 nm, radiation dose rate=80 mW/cm^2). The light-emission spectrum of each cell group was measured using a spectrofluorometer (JASCO Inc.). Measurements in each group were repeated 5 times. The FRET efficiency was calculated by the following equation: […]
F(DA): GFP fluorescence intensity in the presence of RB, and
F(D): GFP fluorescence intensity in the absence of RB.

The next series has as its system eGFP− 4T1 cells. The experiment in a line: In vitro PDT with rose bengal and blue laser light, MTT analysis. Format: cell-based, Mus musculus. To be noted: 473 nm laser light after RB treatment, similar conditions, FIG. 2A. The method, then:
(§1) The photo inducing death of GFP− and GFP+ cells after blue light irradiation was measured by MTT analysis in the presence or absence of rose bengal (RB). The specific experimental procedure is as follows.
(§2) RB was diluted with DMEM containing 10% FBS to produce RB at concentrations of 6.25, 12.5, 25, 50, and 100 μM. GFP− and GFP+ cells were pre-incubated in 96-well, black, and clear bottom plates at a density of 2×10^4 cells per well. Then cells were incubated with RB for 4 hours. The addition of a fresh culture medium without photosensitizer to the wells was performed. This was used as an untreated control. Cells were washed 3 times with PBS buffer.
In the PDT-treated group, the cell was irradiated with blue laser light (473 nm, radiation dose rate=80 mW/cm^2) for 1 to 60 seconds. The toxicity of pure RB on GFP+ and GFP− cells was measured in the dark room. After the irradiation, the fresh culture medium was added to the wells, and cells were cultured again for 24 hours. The medium was then measured by MTT assay. […] The absorbance of the reaction solution was measured at 570 nm. Cell viability was calculated by the following equation: […]
(§3) Each experiment was performed independently. Cell death was measured by LDH analysis.
Th cells were seeded on a 24-well plate at a density of 5×10^4 per well. […] The absorbance was measured at 490 nm using a plate reader.

Series [3] in a line: Absorbance spectrum of the photosensitizer. The following applies: FIG. 1A. Format: physicochemical.
The next series concerns eGFP+-Lgr5+ cells. The experiment in a line: Visualization of in vivo cell death with FLIVO probe. Also noted: species or system mouse. The following applies: Lgr5-EGFP-IRES-creERT2 knock-in mice, RB treatment and laser light irradiation. How it is done: To measure cell death in live animals, FLIVO™ probes were diluted with PBS containing 1% DMSO at doses according to animal weight. The fluorescent red probe FLIVO™ (Immunochemistry Technologies LLC, Abcys SA, Paris, France) was intravenously injected into wild type and GFP-Lgr5 mice. The mouse was euthanized after 1 hour and the colon tissue was separated therefrom. Fluorescent signals from FLIVO™ were imaged using a confocal microscope.

For a further series, the system named is eGFP+ 4T1 cells. Kind of series: In vitro PDT with rose bengal and blue laser light, MTT analysis. In kind it is cell-based. The method, then: as §1, §2
In the PDT-treated group, the cell was irradiated with blue laser light (473 nm, radiation dose rate=80 mW/cm^2) for 1 to 60 seconds. The toxicity of pure RB on GFP+ and GFP− cells was measured in the dark room. After the irradiation, the fresh culture medium was added to the wells, and cells were cultured again for 24 hours. The medium was then measured by MTT assay. 150 μL of solubilizing solution and stop solution were added thereto, followed by incubation at 37° C. for 4 hours. The absorbance of the reaction solution was measured at 570 nm. Cell viability was calculated by the following equation:
(ODtreated/ODcontrol)×100%.
as §3
Th cells were seeded on a 24-well plate at a density of 5×10^4 per well. After the photosensitizer treatment thereto, blue light was irradiated thereto as described above. Each culture medium was prepared. For LDH analysis, LDH Cytotoxicity Assay kit (Cayman Chemical Company, Ann Arbor, Mich., USA) was used according to the producer protocol. 100 μL of the supernatant of the cultured cells was transferred from the well to a corresponding well of the new plate, and then 100 μL of the reaction solution was added to each well. The plates were incubated for 30 minutes at room temperature while executing gentle shaking thereof with an orbital shaker. The absorbance was measured at 490 nm using a plate reader.

`O=C1OC2(c3cc(I)c(O)c(I)c3Oc3c2cc(I)c(O)c3I)c2c(Cl)c(Cl)c(Cl)c(Cl)c21` [RB, rose bengal]: the “death of GFP versus non-GFP cells in mixed culture” value in series [1] was “only GFP cells were specifically killed”. In series [2], the “emission intensity at 508 nm (emission peak of GFP)” value is given as “decreases as the concentration of RB increases”. Besides, in the series on eGFP− 4T1 cells, the “eGFP− cells killed” value is reported as 20%. In series [3], the maximum absorbance is listed as 549 nm and the shoulder absorbance spectrum came to 510 nm. The “cell death signal in eGFP+-Lgr5+ cell region versus adjacent low-GFP-expression region” value in the series on eGFP+-Lgr5+ cells is “stronger”. Also, in the series on eGFP+ 4T1 cells (blue laser light (473 nm), FIG. 1B), the “selective cell death of eGFP+ versus eGFP− 4T1 cells” value is “the cells selectively died”. In the series with eGFP+ 4T1 cells (exposed to 473 nm laser light after RB treatment, FIG. 2A), the “eGFP+ cells selectively killed” value is on record as ~60%. Also, in the series with eGFP+ 4T1 cells (extremely high concentrations of RB and extremely long exposure time, FIG. 2C), the “cytotoxicity, eGFP+ versus eGFP− cells” value was “a similar level of cytotoxicity was observed between eGFP+ and eGFP− cells”. For the same compound, the “cell death percentage, eGFP+ versus eGFP− cells” value in the series on eGFP+ 4T1 cells (higher RB concentration and longer exposure time, FIG. 2C) is listed as “cell death percentage of eGFP+ cells was higher than that of eGFP− cells”.
